Measurements from patent publication US9713702B2, “Methods of electric field induced delivery of compounds, compositions used in delivery, and systems of delivery” (The Board of Trustee of the Leland Stanford Junior …, priority 2011, dated 2017).

Columns and labels:
[1] = Release study in solution: electric field triggered release from the conductive hydrogel on a platinum electrode in PBS; type: physicochemical
Method: The triggered release capabilities of this system were firstly investigated in solution. In phosphate buffered saline (PBS, pH 7.2), a voltage of −0.5 V was applied between two platinum electrodes separated by a distance of 1 cm. The anode was coated with 100 mg of the hydrogel containing 0.25 wt % fluorescein-encapsulated PPy nanoparticles with a thickness around 0.1 cm. The resistivity of the swelled hydrogel and the PBS buffer was measured to be 5400 Ω·cm and 64 Ω·cm, respectively. Then, the electric field across the hydrogel was calculated to be approximately −4.5 V/cm. The electrical stimulus was applied for 10 seconds, which was repeated every five minutes, followed by measurements of the concentration of free fluorescein in the solution. […] For each stimulus, ˜20 ng of fluorescein was released. The voltage between the two electrodes was then set at −1.5 V (corresponding to an electric field across the hydrogel of −13.6 V/cm). […] The higher amount observed during the first stimulus may result from higher drug loading within the nanoparticles. Our interest in the practicability of this triggered release led us to perform a long-term release study over seven days. With the voltage between the two electrodes at −1.0 V (corresponding to an electric field across the hydrogel of −9.0 V/cm), the pulsed electric stimulus was applied to the conductive hydrogels for 20 s, once every 24 hr, followed by concentration measurements of free fluorescein in solution. […] In the case of daunorubicin, an electric field across the hydrogel of 4.5 V/cm (the set voltage was 0.5 V) was applied for 10 seconds every 5 minutes.
By applying voltage until no obvious drug release could be detected, the loading percentage of fluorescein and daunorubicin in PPy nanoparticles was calculated to be around 3.6 wt % and 3.2 wt %. […] Only with an electric stimulus can drugs be released on command. This represents an important advantage of our delivery system over conventional sustained release of drugs from hydrogel.
The platinum anode was firstly coated with the PLGA-PEG-PLGA polymer solution (100 mg of polymer) containing 0.25 wt % fluorescein (or daunorubicin)-encapsulated PPy nanoparticles, followed by solidification of the gel at room temperature. The PPy nanoparticles in the solidified gel was calculated to be 1 wt %. The coated platinum anode was then immersed in phosphate buffered saline (PBS, pH 7.2) together with a counter platinum electrode with a separated distance of 1 cm. For the release study in solution, specific voltages were applied between the two electrodes, followed by measurements of the concentration of released molecules by fluorescent assays.

[2] = Method: D-luciferin-encapsulated polypyrrole nanoparticles were synthesized the by an emulsion polymerization which could control the sizes of the nanoparticles. Luciferin served as a model molecule was incorporated in the polymer nanoparticle. […] At 4° C., 0.05 wt % of polypyrrole nanoparticles were dispersed in the water solution containing 15 wt % of poly[(D,L-lactic acid)-co-(glycolic acid)]-b-poly(ethylene oxide)-b-poly[(D,L-lactic acid)-co-(glycolic acid)] (PLGA-PEG-PLGA).
An electrical stimulus of −2.0 V/cm was applied for 10 seconds on the platinum electrodes in every 5 minutes, followed by measuring the concentration of luciferin in the solution.

Row | release of luciferin without applying voltage ([2]; D-luciferin-encapsulated polypyrrole nanoparticles in hydrogel, control without voltage) | Structure (SMILES) | loading percentage in PPy nanoparticles ([1]; calculated by applying voltage until no obvious drug release could be detected) | amount of daunorubicin released upon each stimulus ([1]; daunorubicin-encapsulated PPy nanoparticles in hydrogel, PBS pH 7.2, 0.5 V (4.5 V/cm across hydrogel), 10 seconds every 5 minutes) | release from PPy nanoparticles in hydrogel without applying voltage ([1]; drug encapsulated in PPy nanoparticles in hydrogel, no electric field (control)) | sustained release from hydrogel without encapsulation in PPy nanoparticles ([1]; drug in PLGA-PEG-PLGA hydrogel, not encapsulated in PPy nanoparticles, no voltage) | release of luciferin upon electric stimulus ([2]; D-luciferin-encapsulated polypyrrole nanoparticles in PLGA-PEG-PLGA hydrogel, -2.0 V/cm, 10 seconds every 5 minutes)
1 | – | COc1cccc2c1C(=O)c1c(O)c3c(c(O)c1C2=O)C[C@@](O)(C(C)=O)C[C@@H]3O[C@H]1C[C@H](N)[C@H](O)[C@H](C)O1 [daunorubicin] | ~3.2 wt % | ~25 ng | no obvious release | most of the drugs in hydrogel were released in 4 days | –
2 | no release | O=C(O)[C@H]1CSC(c2nc3ccc(O)cc3s2)=N1 [luciferin, D-luciferin] | – | – | – | – | released by applying the electric stimulus
